Assay results published in patent US20220041641A1, “QUATERNARY AMMONIUM SALTS AS INHIBITORS OF TRIMETHYLAMINE PRODUCTION” (Senda Biosciences, Inc., priority 2018, published 2022).
“And” between values parts separate entries of the source, which are not always exact repeats. Equal values may be shown once. Read-outs that look alike come from different tables or passages of the source.

Key:
[1] = test system: CutC/D enzyme; test: Acute mouse model (plasma TMAO on choline diet); type: in vivo, male C57BL/6 mice
Experimental: The following acute mouse model may be used to determine inhibition of the CutC/D enzyme and thus the inhibition of the formation of trimethylamine (TMA) from choline.
On day 1, male C57BL/6 mice were given a chemically defined diet (Tekland Global Rodent Diet 2018) containing 1.0% choline (g/g) for the duration of the experiment. Concurrently on day 1, mice were orally gavaged with 200 μL of compounds of interest (formulated in water). Mice were orally gavaged with the compounds and vehicle control again on day 2 and day 3 at a fixed time. Twenty hours after the last gavage, mice were sacrificed, and plasma was collected and prepared for detection of trimethylamine-N-oxide (TMAO) via liquid chromatography with on-line tandem mass spectrometry (LC-MS/MS). Food consumption and mouse weight were measured each day.
Plasma samples were prepared for LCMS as follows: An aliquot of 20 μL plasma sample was protein precipitated with 200 μL internal standard solution (100 ng/mL Labetalol & 100 ng/mL Tolbutamide & 100 ng/mL Diclofenac in acetonitrile, the mixture was vortex-mixed and centrifuged at 4000 rpm for 15 min, 4° C. An aliquot of 100 μL supernatant was transferred to the sample plate for LCMS injection. 1 μL of sample was injected onto an LC column for TMAO LCMS analysis.
Concentrations of TMAO were determined with a calibration curve ranging 0.05-100 μM for d9-TMAO in control plasma.

[2] = Caco-2 permeability assay; type: in vitro ADME; conditions: human
Experimental: Preparation of Caco-2 Cells: 50 μL and 25 mL of cell culture medium were added to each well of the Transwell insert and reservoir, respectively. The HTS transwell plates were incubated at 37° C., 5% CO2 for 1 hour before cell seeding. […] Cell culture medium was replaced every other day, beginning no later than 24 hours after initial plating.
Assessment of Cell Monolayer Integrity: Medium was removed from the reservoir and each Transwell insert and replaced with prewarmed fresh culture medium. Transepithelial electrical resistance (TEER) across the monolayer was measured using Millicell Epithelial Volt-Ohm measuring system (Millipore, USA). The Plate was returned to the incubator once the measurement was done. The TEER value was calculated according to the following equation: […]
Preparation of Solutions: 2 mM stock solutions in DMSO of control compounds were prepared and diluted with HBSS (10 mM HEPES, pH 7.4) to get 10 μM working solution. 0.2 mM stock solutions of test compounds in DMSO were prepared and diluted with HBSS (10 mM HEPES, pH 7.4 with 0.5% BSA) to get 1 μM working solution. Metoprolol, erythromycin and cimetidine were used as control compounds.
The Caco-2 plate was removed from the incubator. The monolayer was washed twice with pre-warmed HBSS (10 mM HEPES, pH 7.4). The plate was incubated at 37° C. for 30 minutes. To determine the rate of drug transport in the apical to basolateral direction, 125 μL of the working solution was added to the Transwell insert (apical compartment). A 50 μL sample was transferred immediately from the apical compartment to 200 μL of acetonitrile containing IS (100 nM alprazolam, 200 nM Caffeine and 100 nM tolbutamide) in a new 96-well plate as the initial donor sample (A-B) and it was vortexed at 1000 rpm for 10 minutes. The wells in the receiver plate (basolateral compartment) were filled with 235 μL of transport buffer. To determine the rate of drug transport in the basolateral to apical direction, 285 μL of the working solution were added to the receiver plate wells (basolateral compartment). A 50 μL sample was transferred immediately from the basolateral compartment to 200 μL of acetonitrile containing IS (100 nM alprazolam, 200 nM Caffeine and 100 nM tolbutamide) in a new 96-well plate as the initial donor sample (B-A) and it was vortexed at 1000 rpm for 10 minutes. The Transwell insert (apical compartment) was filled with 75 μL of transport buffer. The apical to basolateral direction and the basolateral to apical direction need to be done at the same time. The plates were incubated at 37° C. for 2 hours. At the end of the incubation, 50 μL samples from donor sides (apical compartment for Ap→Bl flux, and basolateral compartment for B1→Ap) and receiver sides (basolateral compartment for Ap→Bl flux, and apical compartment for B1→Ap) were transferred to wells of a new 96-well plate, followed by the addition of 4 volume of acetonitrile containing IS (100 nM alprazolam, 200 nM Caffeine and 100 nM tolbutamide). Samples were vortexed for 10 minutes, 50 μL samples were transferred to wells of a new 96-well plate, followed by the addition of 50 μL Hepes and 200 μL IS. All samples were vortexed for 10 minutes, and then centrifuged at 3,220 g for 40 minutes. An aliquot of 150 μL of the supernatant was mixed with an appropriate volume of ultra-pure water before LC-MS/MS analysis.
Apparent permeability (Papp) can be calculated for drug transport assays using the following equation: […]
Papp is apparent permeability (cm/s×10^−6);
Papp (B-A) indicates the apparent permeability coefficient in basolateral to apical direction, and
Papp (A-B) indicates the apparent permeability coefficient in apical to basolateral direction.

[3] = biological target: CutC from Proteus mirabilis (Proteus mirabilis, UniProt B4EYG1); test: Cell-based assay for TMA production from a native producer (P. mirabilis); conditions: d9-TMA from 1 mM d9-choline, 5 h, 37° C.; value 10 given when no fit or % TMA remaining at 10 μM higher than 15%; read-out: Average IC50 Whole cell P. mirabilis
How it was run: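 Overnight anaerobic cultures of P. mirabilis or C. sporogenes, grown in BHI with 1 mM choline, were diluted and given 1 mM (trimethyl-d9)-choline plus compound at 10 μM final. After 5 h at 37° C., d9-TMA was quantified by LCMS.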

[4] = biological target: CutC from Clostridium sporogenes (Clostridium sporogenes, UniProt A0AAE4Z0A8); test: Cell-based assay for TMA production from a native producer (C. sporogenes); conditions: read-out: IC50 Whole cell C. sporogenes; d9-TMA from 1 mM d9-choline, 5 h, 37° C.; run once; value 10 given when no fit or % TMA remaining at 10 μM higher than 15%
From the text: In each bacterium, CutC was modified into its activated form by a cognate activating enzyme, CutD (protein EDU36696.1 for C. sporogenes; protein WP_004249185.1 for P. mirabilis). […] Trimethylamine may subsequently be converted by human enzymes such as flavin monooxygenase 3 to trimethylamine N-oxide, which might be associated with negative health consequences in humans.
A compound's ability to inhibit CutC from Proteus mirabilis and C. sporogenes from converting choline into trimethylamine was tested in cells as described. A BHI blood plate was inoculated with a frozen stock of Proteus mirabilis or Clostridium sporogenes under anaerobic conditions. A single colony was isolated from the plate and inoculated into 5 mL BHI supplemented with 1 mM choline under anaerobic conditions. The liquid cultures were grown overnight at 37° C.
To prepare each sample, 300 μL of the saturated culture was then inoculated into a 30 mL dilution blank under anaerobic conditions. 1 mM (trimethyl-d9)-choline and a sufficient amount of a compound to obtain a final concentration of 10 μM were added to the inoculated dilution blank. […] The mixture was incubated at 37° C. for 5 h. […] After centrifugation, the samples were analyzed by LCMS to determine the amount of d9-TMA produced.

[5] = in vivo; parameters: species or system Sprague-Dawley rats; conditions: Sprague-Dawley, rat
Experimental: Sprague-Dawley rats (three rats per compound) were treated with a single intravenous (IV) 1 mg/kg dose or orally (PO) a single 10 mg/kg dose. Plasma concentrations of the conjugates were determined by LCMS at 5 minutes, 15 minutes, 30 minutes, 1 hour, 2 hours, 4 hours, 8 and 24 hours post compound administration. […] In addition, the plasma exposure and bioavailability of the active agent of was lower when dosed as a conjugate instead of the active agent alone.

[6] = pH 7.4, Caco-2, apical to basolateral, 1 μM, 2 hours, 37° C., read-out: Papp A-B
[7] = pH 7.4, Caco-2, basolateral to apical, 1 μM, 2 hours, 37° C., read-out: Papp B-A

CutC from Proteus mirabilis, sequence (B4EYG1 entry or part of it): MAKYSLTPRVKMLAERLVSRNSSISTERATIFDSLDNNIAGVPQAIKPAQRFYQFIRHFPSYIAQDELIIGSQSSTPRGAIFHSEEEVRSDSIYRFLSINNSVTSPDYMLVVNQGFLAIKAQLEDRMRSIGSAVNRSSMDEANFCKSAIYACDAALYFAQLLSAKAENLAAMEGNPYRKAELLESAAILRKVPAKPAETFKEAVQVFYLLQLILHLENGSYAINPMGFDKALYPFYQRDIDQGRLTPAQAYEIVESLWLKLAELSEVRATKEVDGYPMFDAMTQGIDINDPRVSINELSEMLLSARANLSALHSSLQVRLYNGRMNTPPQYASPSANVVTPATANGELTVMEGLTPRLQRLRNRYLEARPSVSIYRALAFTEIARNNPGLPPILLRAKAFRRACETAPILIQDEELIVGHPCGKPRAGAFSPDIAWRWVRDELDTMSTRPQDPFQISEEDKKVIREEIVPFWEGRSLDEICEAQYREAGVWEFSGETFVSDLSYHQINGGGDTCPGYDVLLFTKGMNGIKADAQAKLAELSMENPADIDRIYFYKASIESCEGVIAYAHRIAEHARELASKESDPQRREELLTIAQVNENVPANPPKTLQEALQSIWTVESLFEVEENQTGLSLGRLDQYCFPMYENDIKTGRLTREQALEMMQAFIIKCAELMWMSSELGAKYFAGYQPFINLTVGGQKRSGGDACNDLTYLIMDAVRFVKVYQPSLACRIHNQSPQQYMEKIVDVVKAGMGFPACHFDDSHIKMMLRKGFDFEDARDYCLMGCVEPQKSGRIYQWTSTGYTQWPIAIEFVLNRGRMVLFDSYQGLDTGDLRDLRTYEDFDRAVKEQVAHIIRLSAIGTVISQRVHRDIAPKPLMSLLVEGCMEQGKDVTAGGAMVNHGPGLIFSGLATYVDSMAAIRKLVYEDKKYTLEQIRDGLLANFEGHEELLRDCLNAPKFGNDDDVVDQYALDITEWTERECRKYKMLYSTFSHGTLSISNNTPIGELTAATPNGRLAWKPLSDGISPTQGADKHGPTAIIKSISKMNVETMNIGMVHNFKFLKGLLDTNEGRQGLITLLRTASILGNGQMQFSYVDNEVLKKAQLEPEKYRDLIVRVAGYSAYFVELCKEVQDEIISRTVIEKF
CutC from Proteus mirabilis, sequence (B4EYG0 entry or part of it, further chain): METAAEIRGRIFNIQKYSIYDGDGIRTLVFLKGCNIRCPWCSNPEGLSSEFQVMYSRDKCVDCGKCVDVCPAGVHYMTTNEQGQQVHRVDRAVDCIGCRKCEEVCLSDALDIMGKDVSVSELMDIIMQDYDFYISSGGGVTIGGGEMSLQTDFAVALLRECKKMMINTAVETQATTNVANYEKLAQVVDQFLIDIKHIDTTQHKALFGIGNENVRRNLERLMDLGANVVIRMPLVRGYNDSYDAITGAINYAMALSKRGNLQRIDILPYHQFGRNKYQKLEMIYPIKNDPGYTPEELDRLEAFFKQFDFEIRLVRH
CutC from Clostridium sporogenes, sequence (A0ABD6RTF0 entry or part of it): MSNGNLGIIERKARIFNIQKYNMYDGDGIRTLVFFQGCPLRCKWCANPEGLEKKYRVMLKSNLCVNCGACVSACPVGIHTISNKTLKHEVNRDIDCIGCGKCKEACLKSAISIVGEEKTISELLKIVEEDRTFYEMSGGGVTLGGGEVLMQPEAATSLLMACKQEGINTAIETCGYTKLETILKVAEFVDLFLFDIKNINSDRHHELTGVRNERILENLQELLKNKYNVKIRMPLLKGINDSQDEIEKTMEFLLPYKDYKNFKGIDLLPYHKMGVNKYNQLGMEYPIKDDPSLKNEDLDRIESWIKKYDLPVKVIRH
CutC from Clostridium sporogenes, sequence (A0AAE4Z0A8 entry or part of it): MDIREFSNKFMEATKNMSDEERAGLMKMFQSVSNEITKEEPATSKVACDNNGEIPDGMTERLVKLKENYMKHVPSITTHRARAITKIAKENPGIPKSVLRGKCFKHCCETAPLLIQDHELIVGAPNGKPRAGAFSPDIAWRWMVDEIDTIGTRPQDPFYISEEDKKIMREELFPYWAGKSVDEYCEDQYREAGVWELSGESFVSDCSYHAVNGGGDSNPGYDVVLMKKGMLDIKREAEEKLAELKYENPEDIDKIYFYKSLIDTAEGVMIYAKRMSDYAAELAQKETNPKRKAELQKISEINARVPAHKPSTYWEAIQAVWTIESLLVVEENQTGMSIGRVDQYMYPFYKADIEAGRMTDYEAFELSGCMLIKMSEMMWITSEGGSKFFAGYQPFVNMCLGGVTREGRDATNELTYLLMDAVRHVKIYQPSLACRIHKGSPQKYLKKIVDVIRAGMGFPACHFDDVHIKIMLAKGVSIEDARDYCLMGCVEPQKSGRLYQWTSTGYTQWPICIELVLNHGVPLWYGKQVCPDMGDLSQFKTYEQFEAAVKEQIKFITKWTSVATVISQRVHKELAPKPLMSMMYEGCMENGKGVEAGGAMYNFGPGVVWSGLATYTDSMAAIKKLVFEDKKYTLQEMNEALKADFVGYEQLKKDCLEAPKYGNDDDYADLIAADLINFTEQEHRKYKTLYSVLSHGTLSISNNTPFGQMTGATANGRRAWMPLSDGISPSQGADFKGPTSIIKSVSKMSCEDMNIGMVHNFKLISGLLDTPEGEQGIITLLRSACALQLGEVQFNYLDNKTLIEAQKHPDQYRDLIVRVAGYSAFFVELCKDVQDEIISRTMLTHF

SMILES: C#CC[N+](C)(C)CCO.[Br-] [Compound J60, N-(2-hydroxyethyl)-N,N-dimethylprop-2-yn-1-aminium Iodide]
- % change from vehicle control + choline diet ([1]; Table 4a, 10 mg/kg oral gavage days 1-3): −28.46%
- Mean plasma TMAO ([1]; Table 4a, 10 mg/kg oral gavage days 1-3, plasma 20 h after last gavage): 31.06 µM
- % change from vehicle control + choline diet ([1]; Table 4a, 33 mg/kg oral gavage days 1-3): −60.39%
- Mean plasma TMAO ([1]; Table 4a, 33 mg/kg oral gavage days 1-3, plasma 20 h after last gavage): 17.20 µM
- % change from vehicle control + choline diet ([1]; Table 4a, 100 mg/kg oral gavage days 1-3): −87.29%
- Mean plasma TMAO ([1]; Table 4a, 100 mg/kg oral gavage days 1-3, plasma 20 h after last gavage): 5.52 µM
- Mean plasma TMAO ([1]; Table 4b, 10 mg/kg oral gavage days 1-3, plasma 20 h after last gavage, 10 mg/kg): 27.4 µM and 24.7 µM
- % change from vehicle control + choline diet ([1]; Table 4c, 100 mg/kg oral gavage days 1-3): −74.22%
- Mean plasma TMAO ([1]; Table 4c, 100 mg/kg oral gavage days 1-3, plasma 20 h after last gavage): 5.41 µM
- % change from vehicle control + choline diet ([1]; Table 4e, 100 mg/kg oral gavage days 1-3): −86%
- Mean plasma TMAO ([1]; Table 4e, 100 mg/kg oral gavage days 1-3, plasma 20 h after last gavage): 3.81 µM
- % change from vehicle control + choline diet ([1]; Table 4f, 100 mg/kg oral gavage days 1-3): −81%
- Mean plasma TMAO ([1]; Table 4f, 100 mg/kg oral gavage days 1-3, plasma 20 h after last gavage): 6.20 µM
- % change from vehicle control + choline diet ([1]; Table 4g, 100 mg/kg oral gavage days 1-3): −53%
- Mean plasma TMAO ([1]; Table 4g, 100 mg/kg oral gavage days 1-3, plasma 20 h after last gavage): 13.1 µM
- % change from vehicle control + choline diet ([1]; Table 4h, 100 mg/kg oral gavage days 1-3): −80%
- Mean plasma TMAO ([1]; Table 4h, 100 mg/kg oral gavage days 1-3, plasma 20 h after last gavage): 8.72 µM
- % change from vehicle control + choline diet ([1]; Table 4d, 100 mg/kg oral gavage days 1-3): −68%
- Mean plasma TMAO ([1]; Table 4d, 100 mg/kg oral gavage days 1-3, plasma 20 h after last gavage): 6.00 µM
- Papp A→B at 2 h, 1 µM [2, 6]: 11.1 ×10⁻⁶ cm/s
- Papp B→A at 2 h, 1 µM [2, 7]: 6.23 ×10⁻⁶ cm/s

SMILES: C#CC[N+]1(C)CCCN1.[I-] (centres unmarked) [Compound 125, 1-methyl-1-(prop-2-yn-1-yl)pyrazolidin-1-ium Iodide]
- % change from vehicle control + choline diet ([1]; Table 4g, 9.8 mg/kg oral gavage days 1-3): −6%
- Mean plasma TMAO ([1]; Table 4g, 9.8 mg/kg oral gavage days 1-3, plasma 20 h after last gavage): 26.2 µM
- % change from vehicle control + choline diet ([1]; Table 4g, 97.7 mg/kg oral gavage days 1-3): 18%
- Mean plasma TMAO ([1]; Table 4g, 97.7 mg/kg oral gavage days 1-3, plasma 20 h after last gavage): 32.8 µM
- Papp A→B at 2 h, 1 µM ([2]; Caco-2, pH 7.4): 0.466 ×10⁻⁶ cm/s
- Papp B→A at 2 h, 1 µM ([2]; Caco-2, pH 7.4): 0.482 ×10⁻⁶ cm/s
- IC50 [3]: 0.19 µM

SMILES: C[N+]1(CF)CCC[C@H]1CO.[I-] (stereo partly drawn) [Compound 109, (2S)-1-(fluoromethyl)-2-(hydroxymethyl)-1-methylpyrrolidin-1-ium iodide]
- % change from vehicle control + choline diet ([1]; Table 4g, 116 mg/kg oral gavage days 1-3): −90%
- Mean plasma TMAO ([1]; Table 4g, 116 mg/kg oral gavage days 1-3, plasma 20 h after last gavage): 2.71 µM
- Papp A→B at 2 h, 1 µM ([2]; Caco-2, pH 7.4): 0.6 ×10⁻⁶ cm/s
- Papp B→A at 2 h, 1 µM ([2]; Caco-2, pH 7.4): 0.5 ×10⁻⁶ cm/s
- IC50 [3]: 0.62 µM
- IC50 [4]: 0.42 µM

SMILES: C[N+](C)(CCO)C1CC1.[I-] [Compound 111, N-(2-hydroxyethyl)-N,N-dimethylcyclopropanaminium Iodide]
- Papp A→B at 2 h, 1 µM ([2]; Caco-2, pH 7.4): 0.8 ×10⁻⁶ cm/s
- Papp B→A at 2 h, 1 µM ([2]; Caco-2, pH 7.4): 0.8 ×10⁻⁶ cm/s
- IC50 [3]: 0.14 µM and 0.27 µM
- IC50 [4]: 0.22 µM

SMILES: C#CC[N+](C)(C)CCO[C@@H]1O[C@H](COC(C)=O)[C@@H](OC(C)=O)[C@H](OC(C)=O)[C@H]1OC(C)=O.[I-] [Compound 7, N,N-dimethyl-N-(2-(((2R,3R,4S,5R,6R)-3,4,5-triacetoxy-6-(acetoxymethyl)tetrahydro-2H-pyran-2-yl)oxy)ethyl)prop-2-yn-1-aminium Iodide]
- % change from vehicle control + choline diet ([1]; Table 4a, 358 mg/kg oral gavage days 1-3): −79.95%
- Mean plasma TMAO ([1]; Table 4a, 358 mg/kg oral gavage days 1-3, plasma 20 h after last gavage): 6.90 µM
- % change from vehicle control + choline diet ([1]; Table 4c, 35.8 mg/kg oral gavage days 1-3): −2.97%
- Mean plasma TMAO ([1]; Table 4c, 35.8 mg/kg oral gavage days 1-3, plasma 20 h after last gavage): 20.4 µM
- % change from vehicle control + choline diet ([1]; Table 4c, 107 mg/kg oral gavage days 1-3): −24.83%
- Mean plasma TMAO ([1]; Table 4c, 107 mg/kg oral gavage days 1-3, plasma 20 h after last gavage): 15.8 µM
- % change from vehicle control + choline diet ([1]; Table 4c, 358 mg/kg oral gavage days 1-3): −69.46%
- Mean plasma TMAO ([1]; Table 4c, 358 mg/kg oral gavage days 1-3, plasma 20 h after last gavage): 6.41 µM
- Cmax ([5]; iv, 1 mg/kg): 19.7 µM
- Cmax ([5]; po, 10 mg/kg): 0.0162 µM
- bioavailability ([5]; po, 10 mg/kg): 1.1%
- Papp A→B at 2 h, 1 µM ([2]; Caco-2, pH 7.4): 0.1 ×10⁻⁶ cm/s
- Papp B→A at 2 h, 1 µM ([2]; Caco-2, pH 7.4): 0.15 ×10⁻⁶ cm/s
- IC50 [3]: 3.16 µM

SMILES: C[N+](C)(CCO)CC1CC1.[Br-] [Compound 107, N-(cyclopropylmethyl)-2-hydroxy-N,N-dimethylethan-1-aminium Bromide]
- Papp A→B at 2 h, 1 µM [2, 6]: 26.8 ×10⁻⁶ cm/s
- Papp B→A at 2 h, 1 µM [2, 7]: 31.1 ×10⁻⁶ cm/s
- IC50 [3]: ≥ 10 µM
- IC50 [4]: ≥ 10 µM
